The values below are quoted from earlier work in EP4699692A1, “ACIDIC GAS ADSORBENT, STRUCTURE COMPRISING ACIDIC GAS ADSORBENT, ACIDIC GAS ADSORPTION DEVICE, AND ACIDIC GAS ADSORBENT PRODUCTION METHOD” (Nitto Denko Corporation, priority 2023, dated 2024).

The conditions of data set [1]: amine monomer.
For data set [2] the following is noted: amine monomer. The source holds these as a separate data set.
For data set [3] the following is noted: amine monomer; regulatory class.
For data set [4] the following is noted: amine monomer; regulatory class. This is another data set of the same source.

Take `NCCNCCNCCN` [TETA, triethylenetetramine]: the “Mutagenicity test (Ames test)” value in data set [1] was “Positive”. The “Skin irritation test (rabbit)” value in data set [2] is “Strong irritant”. The “Fire Service Act” value in data set [3] is reported as “Hazardous material category IV class III petroleums”. Also, in data set [4], the “Poisonous and Deleterious Substances Control Act” value is “Deleterious substance”.
